According to patent US20220233457A1 (DAEGU CATHOLIC UNIVERSITY INDUSTRY ACADEMIC COOPERATION …, priority 2021, published 2022):
“Also recorded” adds a separate entry of the source.

Columns and labels:
[1] = test system: mouse induced to have a cerebral aneurysm; experiment: H&E staining of cerebral arteries (diameter, thickness) in animal model induced to have a cerebral aneurysm; format: in vivo; conditions: compared to diseased group (D); via tail vein, 5 times every three days; brain harvested at week 4
Protocol: (§1) A male C57BL/6J mouse was purchased from Samtako Bio Korea, and, after acclimation for about 1 week, the healthy animals were housed in a polycarbonate cage with random allocation to each test group. Environmental condition for breeding includes a temperature of 22±3° C., relative humidity of 50±10%, lighting hour of 12 hours, and illuminance of 150 to 300 lux. The animals were allowed free access to food and water. Hypertension was induced by a high salt diet, unilateral nephrectomy, and subcutaneous pump infusion of angiotensin II.
(§2) Specifically, a male C57BL/6J mouse was anesthetized with isoflurane gas and the left kidney was removed by surgery. One week after the surgery, the mouse was fixed onto a nose cone, anesthetized with isoflurane gas by inhalation, and then fixed on a stereostatic system. By using a 10 μl Hamilton syringe, 10 μl of 1.0 U elastase solution was injected to the right cistern to induce cerebral aneurysm. For elastase injection, 1.0 U elastase was injected through a hole on the right skull, under anesthetization with isoflurane gas by inhalation, by pushing the syringe to a space of cerebrospinal fluid in the right bottom, 2.5 mm behind the bregma (parietal point) and 1.0 mm to the right of the center line, and elastase was injected to the depth of 5.0 min.
(§3) After that, to have a continuous infusion of angiotensin II, an osmotic pump was subcutaneously inserted (1000 ng/kg/min) and cerebral aneurysm was induced by performing a high salt diet (8% NaCl, Enbigo) for 14 days (FIG. 2).
To the all test groups, the pharmaceutical was administered in an amount of 0.1 ml. […]
According to the visualization of cell nucleus, cytoplasm, and extracellular matrix by H&E staining of cerebral artery tissues, a change in the structure and shape of the cerebral artery was analyzed. To examine a change in the brain arterial wall, an immunohistochemical microscopic image was scanned and the diameter and thickness of the artery were measured by using Case Viewer software.

[2] = test system: RAW 264.7 cells; experiment: Cytotoxicity, MTT assay; format: cell-based; conditions: for concentration at which cell viability is lowered by cytotoxicity: MTT assay, treatment time not stated in Example 7; for melittin concentration at which cell viability was significantly decreased: RAW 264.7 cells, 0.1-4 μg/ml tested
[3] = test system: NFκB; experiment: NFκB expression in cerebral arterial wall (real-time PCR, Western blot); format: in vivo, mouse; conditions: compared to group induced to have cerebral aneurysm; for expression level of NFκB protein: Western blot; for expression level of NFκB gene: real-time PCR
[4] = test system: mouse induced to have a cerebral aneurysm; experiment: Trichrome staining, collagen content of cerebral artery wall; format: in vivo; conditions: via tail vein, week 4
Protocol: as §1
as §2, with “[…]. […]” for “min.”

[5] = test system: CD68; experiment: CD68 (macrophage marker) expression in cerebral arterial wall (IHC); format: in vivo, mouse; conditions: immunohistochemistry staining, levels 0 to 2; compared to diseased group (D)
Protocol: as §1
Specifically, a male C57BL/6J mouse was anesthetized with isoflurane gas and the left kidney was removed by surgery. One week after the surgery, the mouse was fixed onto a nose cone, anesthetized with isoflurane gas by inhalation, and then fixed on a stereostatic system. By using a 10 μl Hamilton syringe, 10 μl of 1.0 U elastase solution was injected to the right cistern to induce cerebral aneurysm. […]
(§4) By using the brain tissues harvested in above Example 2, a change in the expression level of MCP-1 and CD68 in the cerebral arterial wall was determined by immunohistochemistry (IHC) staining. The result was classified into level 0 to level 2 and subjected to statistical analysis, while it was measured by real-time PCR and Western blot.

[6] = test system: TNF-α; experiment: TNF-α expression in cerebral arterial wall (IHC, real-time PCR, Western blot); format: in vivo, mouse; conditions: for expression level of TNF-α protein: Western blot; for expression level of TNF-α protein / expression level of TNF-α gene: compared to group induced to have cerebral aneurysm; for expression level of TNF-α in cerebral arterial wall: immunohistochemistry staining, levels 0 to 2, compared to diseased group (D); for expression level of TNF-α gene: real-time PCR
Protocol: as §1, §2, §3
(§5) To the all test groups, the pharmaceutical was administered in an amount of 0.1 ml.
as §4, with “TNF-α” for “MCP-1 and CD68”, “blot assays.” for “blot.”
(§6) For the real-time PCR performed in above Examples 4 to 6, the primers described in the following Table 1 were used.

[7] = test system: MMP-9; experiment: MMP-9 expression in cerebral arterial wall (IHC, real-time PCR, Western blot); format: in vivo, mouse; conditions: compared to diseased group (D); for expression level of MMP-9 protein: Western blot; for MMP-9 expression in the cerebral arterial wall: immunohistochemistry staining, levels 0 to 2
Protocol: as §1, §2, §3, §5
as §4, with “MMP-9” for “MCP-1 and CD68”
as §6

[8] = test system: mouse induced to have a cerebral aneurysm; experiment: Verhoff Van Gieson staining, elastin content of cerebral arterial wall; format: in vivo; conditions: healthy group 37.6±8.8%, diseased group 5.9±3.7%; via tail vein; week 4
Protocol: as §1
as §2, with “[…]. […]” for “min.”
Elastin content was analyzed by Verhoff Van Gieson staining technique.

[9] = test system: MCP-1; experiment: MCP-1 expression in cerebral arterial wall (IHC, real-time PCR, Western blot); format: in vivo, mouse; conditions: compared to diseased group (D); for expression level of MCP-1 protein: Western blot; for expression level of MCP-1 in the cerebral arterial wall: immunohistochemistry staining, levels 0 to 2
Protocol: as §1, §2, §3, §5, §4, §6

[10] = Stability of melittin solution on storage; format: physicochemical; conditions: 0.36 mM (=1.0 mg/ml) melittin solution, 4° C. for 8 weeks
[11] = test system: mouse blood; experiment: Hemolysis test; format: cell-based; conditions: at 50 μg/mL

Molecule	thickness of cerebral arteries [1]	concentration at which cell viability is lowered by cytotoxicity [2]	expression level of NFκB protein [3]	expression level of NFκB gene [3]	expression level of CD68 in the cerebral arterial wall [5]	expression level of TNF-α protein [6]	expression level of TNF-α in cerebral arterial wall [6]	expression level of TNF-α gene [6]	expression level of MMP-9 protein [7]	MMP-9 expression in the cerebral arterial wall [7]	elastin content [8]	expression level of MCP-1 protein [9]	expression level of MCP-1 in the cerebral arterial wall [9]	further results
CC[C@H](C)[C@H](NC(=O)CN)C(=O)NCC(=O)N[C@@H](C)C(=O)N[C@H](C(=O)N[C@@H](CC(C)C)C(=O)N[C@@H](CCCCN)C(=O)N[C@H](C(=O)N[C@@H](CC(C)C)C(=O)N[C@H](C(=O)N[C@H](C(=O)NCC(=O)N[C@@H](CC(C)C)C(=O)N1CCC[C@H]1C(=O)N[C@@H](C)C(=O)N[C@@H](CC(C)C)C(=O)N[C@H](C(=O)N[C@@H](CO)C(=O)N[C@@H](Cc1c[nH]c2ccccc12)C(=O)N[C@H](C(=O)N[C@@H](CCCCN)C(=O)N[C@@H](CCCNC(=N)N)C(=O)N[C@@H](CCCCN)C(=O)N[C@@H](CCCNC(=N)N)C(=O)N[C@@H](CCC(N)=O)C(=O)N[C@@H](CCC(N)=O)C(N)=O)[C@@H](C)CC)[C@@H](C)CC)[C@@H](C)O)[C@@H](C)O)C(C)C)C(C)C [MEL, melittin]	increase	≥ 500 ng/mL	lower	lower	suppressed	lower	suppressed	lower	lower	suppressed	19.7±7.8%	lower	suppressed	collagen content compared to the diseased group (D) ([4]; statistical comparison with diseased group): no statistical difference; stability of solution [10]: stably maintained
MeLioN: iron oxide nanoparticle loaded with melittin, formed by linking iron oxide nanoparticle, L-arginine, and melittin	increase; also recorded: significantly greater	> 4000 ng/mL	lower	lower	suppressed	lower	suppressed	lower	lower	suppressed	34.9±6.2%	lower	suppressed	diameter of cerebral arteries [1]: statistically significant decrease; also recorded: significantly smaller; melittin concentration at which cell viability was significantly decreased ([2]; 12 h treatment): > 4 µg/mL; melittin concentration at which cell viability was significantly decreased ([2]; 24 h treatment): > 4 µg/mL; collagen content ([4]; normal group 8.7±3.8%, diseased group 32.0±5.5%): 12.6±5.1%; Hemolysis [11]: approximately 10%; expression level of MMP-9 gene ([7]; real-time PCR): lower; expression level of MCP-1 gene ([9]; real-time PCR): lower
